The text below walks through data of patent publication US10538497B2, “Compounds as indoleamine 2,3-dioxygenase inhibitors” (Merck Sharp & Dohme Corp., priority 2015, dated 2020).

Assay [1] addresses T1, IDO1 (Homo sapiens (Human), UniProt P14902). In words: IDO1 Cellular Assay in Frozen HEK293 Cells Transiently Transfected with Human IDO1. The following applies: read-out: IDO1 HEK293 Cell Assay, IC50. Type of assay: cell-based. As for the experimental part: IDO1 Cellular Assay in Frozen HEK293 Cells Transiently Transfected with Human IDO1
HEK293 cells were cultured in complete HEK293 culture medium (90% DMEM, 10% heat-inactivated fetal bovine serum). When reaching sub-confluent, the cells were trypsinized and neutralized with complete medium. […] Flag-IDO1 plasmid was added to the cell suspension at a concentration of 100 μg/mL. The cell-plasmid solutions were transferred to the OC-400 processing assembly (Maxcyte), 400 l/unit and the units were placed in a Maxcyte instrument to carry out flow electroporation for transfection. The cells were then transferred to a sterile 24-well cell culture plate to recover for 20-30 min at 37° C. in an incubator with 5% CO2.
Frozen HEK293/IDO1 and HEK293 WT cells were thawed and transferred into HEK293 assay medium (99% complete HEK293 culture medium, 1% Pen/Strep) with 20 mL medium/vial of cells. The cells were spun down at 250 g in a table top centrifuge for 5 min and suspended in same volume of HEK293 assay medium. […] Sterile L-tryptophan were added to the cells with final concentration of 300 μM.
HEK293/IDO1 and HEK293 WT cells were dispensed to the respective wells of 384-well assay plates containing the compounds. The plates were incubated for about 28-30 h at a 37° C., 5% CO2 incubator. […] The plates were centrifuged for 1 min at 200×g. The resulting fluorescence was measured in a Spectramax plate reader (Molecular Devices) with a 400 nm excitation filter and a 510 nm emission filter.

Assay [2] has as its target T1, IDO1. The experiment in a line: IDO1 Enzyme Assay. The following applies: read-out: IDO1 Enzyme Assay, IC50; HIS-tagged recombinant IDO1, 40 nM.
The target in assay [3] is T1, IDO1. The experiment in a line: IDO1 Cellular Assay in Hela Cells Stimulated with IFNγ. Type of assay: cell-based. The following applies: Hela cells stimulated with IFNγ 100 ng/mL; read-out: IDO1 HELA Cell Assay, IC50. As for the experimental part: IDO1 Cellular Assay in Hela Cells Stimulated with IFNγ
Hela cells were cultured in complete Hela culture medium (90% EMEM, 10% heat-inactivated fetal bovine serum) and expanded to about 1×10^9 cells. The cells were then collected and frozen down at 10×10^6 cells/vial in 1 mL frozen medium (90% complete Hela culture medium, 10% DMSO)
Frozen Hela cells were thawed and transferred into Hela assay medium (99% complete Hela culture medium, 1% Pen/Strep) with 20 mL medium/vial of cells. The cells were spun down at 250 g in a table top centrifuge for 5 min and suspended in same volume of Hela assay medium. The cells were then counted and adjusted to a density of 2×10^5 cells/ml in Hela assay medium. Sterile L-tryptophan were added to the cells with final concentration of 300 uM L-tryptophan. A small aliquot (2 mL/plate) of Hela cells were set aside and were not treated with IFNγ, to serve as the Max-E control. The rest of Hela cells were added with sterile IFNγ (Cat #285-IF, R & D systems) with a final concentration of 100 ng/mL.
Hela cells with and without IFNγ were dispensed to the respective wells of 384-well assay plates containing the compounds. The plates were incubated for about 48 hours at a 37° C., 5% CO2 incubator. […] The plates were centrifuged for 1 min at 200×g. The resulting fluorescence was measured in a Spectramax plate reader (Molecular Devices) with a 400 nm excitation filter and a 510 nm emission filter.

[4] abbreviates: HEK293 cells transiently transfected with human IDO1.

Bounds are passed on as bounds.

T1 sequence (P14902 whole entry): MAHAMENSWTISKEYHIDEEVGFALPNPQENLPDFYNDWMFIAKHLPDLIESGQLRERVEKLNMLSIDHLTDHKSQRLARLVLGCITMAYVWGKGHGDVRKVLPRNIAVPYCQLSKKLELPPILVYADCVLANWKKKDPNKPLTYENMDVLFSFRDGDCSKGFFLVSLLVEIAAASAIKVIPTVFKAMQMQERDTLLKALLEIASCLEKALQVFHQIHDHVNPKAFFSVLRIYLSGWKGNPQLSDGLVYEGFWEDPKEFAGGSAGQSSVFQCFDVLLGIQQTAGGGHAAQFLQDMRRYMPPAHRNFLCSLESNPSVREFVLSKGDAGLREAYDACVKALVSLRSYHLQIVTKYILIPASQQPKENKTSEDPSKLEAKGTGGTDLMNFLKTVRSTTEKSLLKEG

As usually defined, the IC50 is the point on the concentration scale where inhibition reaches its midpoint. As for `CC(C)(C)OC(=O)NCCSc1nonc1/C(=N/O)Nc1ccc(F)c(Br)c1` [Example 1, Tert-butyl (Z)-(2-((4-(N-(3-bromo-4-fluorophenyl)-N′-hydroxycarbamimidoyl)-1,2,5-oxadiazol-3-yl)thio)ethyl)carbamate], the IC50 in assay [1] (setting [4]) turned out to be 740 nM.
For `O/N=C(\Nc1ccc(F)c(Br)c1)c1nonc1O` [Example 4, (Z)—N-(3-Bromo-4-fluorophenyl)-N′,4-dihydroxy-1,2,5-oxadiazole-3-carboximidamide], the half-inhibitory concentration (IC50) in assay [2] was greater than 10000 nM; in assay [1] (setting [4]) it was 3700 nM.
The like results for `O=C(O)CCSc1nonc1/C(=N/O)Nc1ccc(F)c(Br)c1` [Example 14, (Z)-3-((4-(N-(3-bromo-4-fluorophenyl)-N′-hydroxycarbamimidoyl)-1,2,5-oxadiazol-3-yl)thio)propanoic acid] were, in that order, 48.2 nM and greater than 10000 nM.
The like results for `CC(Sc1nonc1/C(=N/O)Nc1ccc(F)c(Br)c1)C(=O)O` (centres unmarked) [Example 16, (Z)-2-((4-(N-(3-bromo-4-fluorophenyl)-N′-hydroxycarbamimidoyl)-1,2,5-oxadiazol-3-yl)thio)propanoic acid] were, in that order, 149 nM and greater than 10000 nM.
As to `COC(=O)CSc1nonc1/C(=N/O)Nc1ccc(F)c(Br)c1` [Example 22, Methyl (Z)-2-((4-(N-(3-bromo-4-fluorophenyl)-N′-hydroxycarbamimidoyl)-1,2,5-oxadiazol-3-yl)thio)acetate], the IC50 in assay [2] turned out to be 35.7 nM; in assay [1] (setting [4]), 1220 nM.
For the molecule `CC(=O)NCCSc1nonc1/C(=N/O)Nc1ccc(F)cc1` [Example 62, N-[2-({4-[N-(4-fluorophenyl)-N′-hydroxycarbamimidoyl]-1,2,5-oxadiazol-3-yl}sulfanyl)ethyl]acetamide], the figures for the IC50 in assay [2] and in assay [1] (setting [4]) were 1030 nM and 1790 nM, respectively.
As for `O=c1c(NCCSc2nonc2/C(=N/O)Nc2ccc(F)c(Br)c2)c(NCC(O)CO)c1=O` (centres unmarked) [Example 75, N-(3-bromo-4-fluorophenyl)-4-{[2-({2-[(2,3-dihydroxypropyl)amino]-3,4-dioxocyclobut-1-en-1-yl}amino)ethyl]sulfanyl}-N′-hydroxy-1,2,5-oxadiazole-3-carboximidamide], the IC50 in assay [2] came out at 23 nM; in assay [1] (setting [4]), 1140 nM.
The like results for `O=c1c(NCCSc2nonc2/C(=N/O)Nc2ccc(F)c(Br)c2)c(NCc2ccncc2)c1=O` [Example 95, N-(3-bromo-4-fluorophenyl)-4-{[2-({3,4-dioxo-2-[(pyridin-4-ylmethyl)amino]cyclobut-1-en-1-yl}amino)ethyl]sulfanyl}-N′-hydroxy-1,2,5-oxadiazole-3-carboximidamide] were, in that order, 27.8 nM and 723 nM.
For the molecule `O=P(CCSc1nonc1/C(=N/O)Nc1ccc(F)c(Br)c1)(Oc1ccccc1)Oc1ccccc1` [Example 101, diphenyl [2-({4-[N-(3-bromo-4-fluorophenyl)-N′-hydroxycarbamimidoyl]-1,2,5-oxadiazol-3-yl}sulfanyl)ethyl]phosphonate], the values for the IC50 in assay [2] and in assay [1] were 764 nM and 2240 nM, respectively.
On to `CCOC(=O)CNP(=O)(CCCSc1nonc1/C(=N/O)Nc1ccc(F)c(Br)c1)NCC(=O)OCC` [Example 108, ethyl 4-[3-({4-[N-(3-bromo-4-fluorophenyl)-N′-hydroxycarbamimidoyl]-1,2,5-oxadiazol-3-yl}sulfanyl)propyl]-7-oxo-8-oxa-3,5-diaza-4-phosphadecan-1-oate 4-oxide], for which the IC50 is 131 nM in assay [2] and 838 nM in assay [1] (setting [4]).
The like results for `CC(C)OC(=O)OCOP(=O)(CCCSc1nonc1/C(=N/O)Nc1ccc(F)c(Br)c1)OCOC(=O)OC(C)C` [Example 109, bis({[(1-methylethoxy)carbonyl]oxy}methyl) [3-({4-[N-(3-bromo-4-fluorophenyl)-N′-hydroxycarbamimidoyl]-1,2,5-oxadiazol-3-yl}sulfanyl)propyl]phosphonate] were, in that order, 706 nM and 2430 nM.
The corresponding values for `O=P(CCSc1nonc1/C(=N/O)Nc1ccc(F)c(Br)c1)(NCc1ccccc1)NCc1ccccc1` [Example 116, 4-({2-[bis(benzylamino)phosphoryl]ethyl}sulfanyl)-N-(3-bromo-4-fluorophenyl)-N′-hydroxy-1,2,5-oxadiazole-3-carboximidamide] are 154 nM and 706 nM.
For the molecule `C[C@@H](O)CNC(=O)CSc1nonc1/C(=N/O)Nc1ccc(F)c(Br)c1` [Example 201, (R)-2-((4-(N-(3-bromo-4-fluorophenyl)-N′-hydroxycarbamimidoyl)-1,2,5-oxadiazol-3-yl)thio)-N-(2-hydroxypropyl)acetamide], the IC50 in assay [2] is 22.4 nM; in assay [3], 26.8 nM.
The like results for `O=C(CSc1nonc1/C(=N/O)Nc1ccc(F)c(Br)c1)NC1(CO)CC1` [Example 202, 2-((4-(N-(3-bromo-4-fluorophenyl)-N′-hydroxycarbamimidoyl)-1,2,5-oxadiazol-3-yl)thio)-N-(1-(hydroxymethyl)cyclopropyl) acetamide] were, in that order, 20.2 nM and 12.2 nM.
As to `C[C@H](O)CNC(=O)CSc1nonc1/C(=N/O)Nc1ccc(F)c(Br)c1` [Example 203, (S)-2-((4-(N-(3-bromo-4-fluorophenyl)-N′-hydroxycarbamimidoyl)-1,2,5-oxadiazol-3-yl)thio)-N-(2-hydroxypropyl)acetamide], the IC50 in assay [2] worked out at 14.5 nM; in assay [3] it was 11.6 nM.
The like results for `CC(C)(Sc1nonc1/C(=N/O)Nc1ccc(F)c(Br)c1)C(=O)NC[C@@H](O)CO` [Example 204, (R)-2-((4-(N-(3-bromo-4-fluorophenyl)-N′-hydroxycarbamimidoyl)-1,2,5-oxadiazol-3-yl)thio)-N-(2,3-dihydroxypropyl)-2-methylpropanamide] were, in that order, 82.6 nM and 144 nM.
The corresponding values for `C[C@@H](CO)NC(=O)CSc1nonc1/C(=N/O)Nc1ccc(F)c(Br)c1` [Example 205, (S)-2-((4-(N-(3-bromo-4-fluorophenyl)-N′-hydroxycarbamimidoyl)-1,2,5-oxadiazol-3-yl)thio)-N-(1-hydroxypropan-2-yl)acetamide] are 12.4 nM and 11.7 nM.
The like results for `CC(C)(NC(=O)CSc1nonc1/C(=N/O)Nc1ccc(F)c(Br)c1)C(O)CO` (centres unmarked) [Example 208, 2-((4-(N-(3-bromo-4-fluorophenyl)-N′-hydroxycarbamimidoyl)-1,2,5-oxadiazol-3-yl)thio)-N-(3,4-dihydroxy-2-methylbutan-2-yl)acetamide] were, in that order, 26.6 nM and 37.5 nM.
`NS(=O)(=O)NCCOc1nonc1/C(=N/O)Nc1ccc(F)c(Br)c1` [Example 212, N-(3-bromo-4-fluorophenyl)-N′-hydroxy-4-(2-(sulfamoylamino)ethoxy)-1,2,5-oxadiazole-3-carboximidamide]: the IC50 was determined as 52 nM in assay [2] and 111 nM in assay [3].
For `NCCOc1nonc1/C(=N/O)Nc1ccc(F)c(Br)c1` [Example 213, 4-(2-aminoethoxy)-N-(3-bromo-4-fluorophenyl)-N′-hydroxy-1,2,5-oxadiazole-3-carboximidamide], the figures for the IC50 in assay [2] and in assay [3] were 130 nM and 607 nM, respectively.
The like results for `CS(=O)(=O)NCCOc1nonc1/C(=N/O)Nc1ccc(F)c(Br)c1` [Example 214, N-(3-bromo-4-fluorophenyl)-N′-hydroxy-4-(2-(methylsulfonamido)ethoxy)-1,2,5-oxadiazole-3-carboximidamide] were, in that order, 205 nM and 44.4 nM.
